Measured values as given in patent US20210161918A1, “TIGECYCLINE FOR TOPICAL TREATMENT OF ROOT CANAL SPACE” (THE UNIVERSITY OF NORTH CAROLINA AT CHAPEL HILL, priority 2018, published 2021).
Marks after values point to notes of the source that are not given here.

Legend:
[1] = tested on: Enterococcus faecalis (ATCC 4083), Streptococcus intermedius (ATCC 31412), Fusobacterium nucleatum (ATCC 49256), Porphyromonas gingivalis (ATCC 33277); assay: MIC and MBC by E-test; type: cell-based
Description: Four common endodontic pathogens were selected for the study: Enterococcus faecalis (ATCC 4083), Streptococcus intermedius (ATCC 31412), Fusobacterium nucleatum (ATCC 49256), and Porphyromonas gingivalis (ATCC 33277). […] Then, each microorganism was cultured in their recommended broth as follow; brain heart infusion (BHI) broth for […], Todd Hewitt broth for S. intermedius, chopped meat for F. nucleatum, and tryptic soy broth supplemented with hemin and vitamin K for P. gingivalis. […] One-way analysis of variance (ANOVA), followed by the Tukey's HSD (with p<0.05) was used for the four microorganisms to compare: A) the MICs and MBCs among tested antibiotics, B) the difference between baseline CFUs and post-treatment CFUs for different antibiotics/scaffold formulations and, C) the changes in color among the groups.

[2] = tested on: polymicrobial biofilm of E. faecalis, S. intermedius, F. nucleatum and P. gingivalis in root canals; assay: Post-treatment CFUs in ex vivo root canals inoculated with bacterial mixture (3-week biofilm), dressed with antibiotics/hydrogel scaffolds; type: cell-based; conditions: for samples with bacterial growth: n=15 per group; for Log10 CFUs: 1 week dressing
Description: (§1) One hundred and twenty intact single rooted permanent human teeth were collected for the study. All teeth were autoclaved, then access cavities were prepeared and the canal instrumented to size 40/0.04, with saline irrigation. Teeth were autoclaved again to ensure absence of bacteria prior to bacterial inoculation. The root canals were then inoculated with the bacterial mixture, using syringe delivery, with the 30-gauge needle close to the working length. Access cavities were then sealed with a sterile sponge and Cavit (3M ESPE). All teeth were then incubated in the anaerobic chamber. The suspensions were replenished weekly for 3 weeks to allow for biofilm formation and maturation (14).

[3] = Crown color change measurement (tooth discoloration, CIE L*a*b*); set-up: species or system human
Description: as §1
Crown color was measured as described previously (16). All color measurements were taken in a dark room inside the anaerobic chamber. The instrument was calibrated before the measurement in each group. • The mean baseline color measurements were taken prior to filling the root canal with the antibiotics (C0) and then at 1 week (C1), 2 weeks (C2), and 3 weeks (C3). The results were expressed in the CIE L*a*b* system (L* [black-white], a* [red-green] and b* [blue-yellow]). • Mean color change (ΔE) value was calculated using the following formula; […].
One-way analysis of variance (ANOVA), followed by the Tukey's HSD (with p<0.05) was used for the four microorganisms to compare: A) the MICs and MBCs among tested antibiotics, B) the difference between baseline CFUs and post-treatment CFUs for different antibiotics/scaffold formulations and, C) the changes in color among the groups.

[4] = comparison among tested antibiotics, P<0.05

In the case of O=C(O)c1cn(C2CC2)c2cc(N3CCNCC3)c(F)cc2c1=O [Ciprofloxacin, ciprofloxacin], the “Minimum Bactericidal Concentration (MBC)” value [1, 4] is reported as “significantly higher” and the “Minimum Inhibitory Concentration (MIC)” value [1, 4] is reported as “significantly higher”.

With CN(C)c1cc(NC(=O)CNC(C)(C)C)c(O)c2c1C[C@H]1C[C@H]3[C@H](N(C)C)C(O)=C(C(N)=O)C(=O)[C@@]3(O)C(O)=C1C2=O [Tigecycline] the “samples with bacterial growth” value ([2]; 0.1 mg/mL) was 93.3%, the “Log10 CFUs” value ([2]; 0.1 mg/ml in hydrogel scaffold) was 3.38 ^b and the “samples with bacterial growth” value ([2]; 1 mg/mL) was 33.3%. The “Log10 CFUs” value ([2]; 1 mg/ml in hydrogel scaffold) was 0.93 ^c, the “mean color change (ΔE)” value ([3]; 1 mg/mL, one week post-treatment) was 6.9±1.9 and the “mean color change (ΔE)” value ([3]; 1 mg/ml, 2 and 3 weeks post-treatment) was 8.4±2.0. The tooth discoloration ([3]; greater than 1 mg/ml to about 10 mg/mL, after applying an inner bonding within the coronal endodontic access preparation) was “no detectable discoloration”.

With Cc1ncc([N+](=O)[O-])n1CCO [metronidazole] the inhibition zone ([1]; against any of tested microorganisms) was “no inhibition zone”.
